Reference: US20200306295A1, “METHOD AND DEVICE FOR ANNIHILATION OF Staphylococcus aureus” (priority 2017, published 2020)

Tested on: 200 kinds of cytokines
Assay: Fold change of 200 cytokines in homogenized wound tissue
Type: in vivo, Balb/c mice
Text: To quantify the physiological condition of the wound tissues, we measured the concentrations of 200 kinds of cytokines (Table. 1) from the supernatant of homogenized tissue solution. Cytokines are small secreted proteins released by cells and have specific effect on the interactions and communications between cells (25).
To initiate the formation of a skin wound, five groups (n=5) of eight-week old female Balb/c mice (obtained from Harlan Laboratories, Indianapolis, Ind., USA) were disinfected with ethanol (70%) and shaved on the middle of the back (approximately a one-inch by one-inch square region around the injection site) one day prior to infection as described from a reported procedure (3). To prepare the bacterial inoculum, an aliquot of overnight culture of MRSA USA300 was transferred to fresh Tryptic soy broth and shaken at 37° C. until an OD600 value of ˜1.0 was achieved. The cells were centrifuged, washed once with PBS, re-centrifuged, and then re-suspended in PBS. Mice subsequently received an intradermal injection (40 μL) containing 2.40×10^9 CFU/mL MRSA USA300.
One group of mice was left untreated (negative control). Each group of mice receiving a particular treatment regimen was housed separately in a ventilated cage with appropriate bedding, food, and water. […] Mice were treated twice daily (once every 12 hours) for three days, before they were humanely euthanized via CO2 asphyxiation 12 hours after the last dose was administered. The region around the skin wound was lightly swabbed with ethanol (70%) and excised. The tissue was subsequently homogenized in PBS. The homogenized tissue was then serially diluted in PBS before plating onto mannitol salt agar plates. Plates were incubated for at least 19 hours at 37° C. before viable MRSA CFU/mL were counted for each group. Outlier was removed based upon the Dixon Q Test.

`OO` [H2O2, hydrogen peroxide] was tested, and the “share of 200 cytokines with negative fold change vs untreated” value (blue light and H2O2-treated group) was “Over 85%”, the “fold change of MBL-2 (mean)” value (cytokine MBL-2, group mean, wound tissue of MRSA-infected mice) was −0.0587 and the “fold change of Meteorin (mean)” value (cytokine Meteorin, group mean, wound tissue of MRSA-infected mice) was 0.4850. For the same compound, the “fold change of NOV (mean)” value (cytokine NOV, group mean, wound tissue of MRSA-infected mice) was −0.1756, the “fold change of Nope (mean)” value (cytokine Nope, group mean, wound tissue of MRSA-infected mice) was −0.2914 and the “fold change of OX40 Ligand (mean)” value (cytokine OX40 Ligand, group mean, wound tissue of MRSA-infected mice) was 0.2366. For the same compound, the “fold change of Osteoactivin (mean)” value (cytokine Osteoactivin, group mean, wound tissue of MRSA-infected mice) was 0.4709, the “fold change of P-Cadherin (mean)” value (cytokine P-Cadherin, group mean, wound tissue of MRSA-infected mice) was −0.0660 and the “fold change of Periostin (mean)” value (cytokine Periostin, group mean, wound tissue of MRSA-infected mice) was −0.5519. The “fold change of PlGF-2 (mean)” value (cytokine PlGF-2, group mean, wound tissue of MRSA-infected mice) was −0.0738, the “fold change of Progranulin (mean)” value (cytokine Progranulin, group mean, wound tissue of MRSA-infected mice) was −0.6229 and the “fold change of Prostasin (mean)” value (cytokine Prostasin, group mean, wound tissue of MRSA-infected mice) was 1.1226. For the same compound, the “fold change of Renin 1 (mean)” value (cytokine Renin 1, group mean, wound tissue of MRSA-infected mice) was −0.3457, the “fold change of TIM-1 (mean)” value (cytokine TIM-1, group mean, wound tissue of MRSA-infected mice) was −0.1106 and the “fold change of Testican 3 (mean)” value (cytokine Testican 3, group mean, wound tissue of MRSA-infected mice) was −0.1883. The “fold change of Tryptase ε (mean)” value (cytokine Tryptase ε, group mean, wound tissue of MRSA-infected mice) was 0.3620, the “fold change of 4-1BB” value (mean, wound tissue) was −0.2733 and the “fold change of 6Ckine” value (mean, wound tissue) was −0.3474. The “fold change of ACE” value (mean, wound tissue) was −0.8627, the “fold change of ADAMTS1” value (mean, wound tissue) was 0.1068 and the “fold change of ALK-1” value (mean, wound tissue) was −0.1821. For the same compound, the “fold change of ANG-3” value (mean, wound tissue) was −0.1019, the “fold change of ANGPTL3” value (mean, wound tissue) was −0.1222 and the “fold change of AR” value (mean, wound tissue) was −0.1343. For the same compound, the “fold change of Activin A” value (mean, wound tissue) was 0.0097, the “fold change of Adiponen” value (mean, wound tissue) was −0.0278 and the “fold change of Artemin” value (mean, wound tissue) was 0.0433. For the same compound, the “fold change of Axl” value (mean, wound tissue) was −0.1455, the “fold change of B7-1” value (mean, wound tissue) was 0.2808 and the “fold change of BAFF R” value (mean, wound tissue) was 0.0988. The “fold change of BLC” value (mean, wound tissue) was −0.1960, the “fold change of BTC” value (mean, wound tissue) was 0.9018 and the “fold change of C5a” value (mean, wound tissue) was 0.1618. The “fold change of CCL6” value (mean, wound tissue) was −0.3559, the “fold change of CCL28” value (mean, wound tissue) was −0.6841 and the “fold change of CD6” value (mean, wound tissue) was −0.2795. For the same compound, the “fold change of CD27” value (mean, wound tissue) was 0.1670, the “fold change of CD27L” value (mean, wound tissue) was 0.1373 and the “fold change of CD30” value (mean, wound tissue) was −0.0510. For the same compound, the “fold change of CD30L” value (mean, wound tissue) was −0.0733, the “fold change of CD36” value (mean, wound tissue) was −0.4456 and the “fold change of CD40” value (mean, wound tissue) was −0.1007. For the same compound, the “fold change of CD40L” value (mean, wound tissue) was −0.2549, the “fold change of CD48” value (mean, wound tissue) was −0.3656 and the “fold change of CRP” value (mean, wound tissue) was −0.2262. For the same compound, the “fold change of CT-1” value (mean, wound tissue) was −0.3499, the “fold change of CTLA4” value (mean, wound tissue) was −0.1747 and the “fold change of CXCL16” value (mean, wound tissue) was −0.2162. The “fold change of Chemerin” value (mean, wound tissue) was −0.2510, the “fold change of Chordin” value (mean, wound tissue) was −0.0093 and the “fold change of Clusterin” value (mean, wound tissue) was 0.1123. The “fold change of Cystatin C” value (mean, wound tissue) was 0.0313, the “fold change of DLL4” value (mean, wound tissue) was −0.0364 and the “fold change of Decorin” value (mean, wound tissue) was −0.0051. The “fold change of Dkk-1” value (mean, wound tissue) was −0.4175, the “fold change of Dtk” value (mean, wound tissue) was −0.3288 and the “fold change of E-Cadherin” value (mean, wound tissue) was −0.1379. The “fold change of E-selectin” value (mean, wound tissue) was −0.1083, the “fold change of EDAR” value (mean, wound tissue) was 0.0841 and the “fold change of EGF” value (mean, wound tissue) was −0.2293. For the same compound, the “fold change of Endocan” value (mean, wound tissue) was −0.0335, the “fold change of Endoglin” value (mean, wound tissue) was −0.6886 and the “fold change of Eotaxin” value (mean, wound tissue) was 0.8584. The “fold change of Eotaxin-2” value (mean, wound tissue) was −0.5961, the “fold change of Epigen” value (mean, wound tissue) was −0.1588 and the “fold change of Epiregulin” value (mean, wound tissue) was −0.2878. The “fold change of Fas” value (mean, wound tissue) was −0.3001, the “fold change of Fas L” value (mean, wound tissue) was −0.2203 and the “fold change of Fcg RIIB” value (mean, wound tissue) was 0.2388. For the same compound, the “fold change of Fetuin A” value (mean, wound tissue) was −0.5133, the “fold change of Flt-3L” value (mean, wound tissue) was −0.2615 and the “fold change of Fractalkine” value (mean, wound tissue) was 0.4416. For the same compound, the “fold change of G-CSF” value (mean, wound tissue) was −0.4083, the “fold change of GITR” value (mean, wound tissue) was −0.1455 and the “fold change of GITR L” value (mean, wound tissue) was −0.0425. The “fold change of GM-CSF” value (mean, wound tissue) was −0.1960, the “fold change of Galectin-1” value (mean, wound tissue) was −0.1195 and the “fold change of Galectin-3” value (mean, wound tissue) was 0.0550. The “fold change of Galectin-7” value (mean, wound tissue) was −0.3150, the “fold change of Gas 1” value (mean, wound tissue) was −0.7018 and the “fold change of Gas 6” value (mean, wound tissue) was −0.3085. The “fold change of Granzyme B” value (mean, wound tissue) was 0.2145, the “fold change of Gremlin” value (mean, wound tissue) was −0.8057 and the “fold change of H60” value (mean, wound tissue) was −0.0250. For the same compound, the “fold change of HAI-1” value (mean, wound tissue) was −0.0794, the “fold change of HGF” value (mean, wound tissue) was 0.2749 and the “fold change of HGF R” value (mean, wound tissue) was 0.0240. The “fold change of I-TAC” value (mean, wound tissue) was −0.1457, the “fold change of ICAM-1” value (mean, wound tissue) was −0.0362 and the “fold change of IFNg” value (mean, wound tissue) was −0.2366. The “fold change of IFNg R1” value (mean, wound tissue) was −0.2832, the “fold change of IGF-1” value (mean, wound tissue) was 0.2487 and the “fold change of IGFBP-2” value (mean, wound tissue) was 0.0153. The “fold change of IGFBP-3” value (mean, wound tissue) was −0.2116, the “fold change of IGFBP-5” value (mean, wound tissue) was 0.0442 and the “fold change of IGFBP-6” value (mean, wound tissue) was −0.2308. For the same compound, the “fold change of IL-1 R4” value (mean, wound tissue) was 0.0090, the “fold change of IL-1a” value (mean, wound tissue) was 0.0141 and the “fold change of IL-1b” value (mean, wound tissue) was 0.2075.
